Key:
Staphylococcus aureus = test: Zones of inhibition analysis of nitrile rubber film swatches on seeded agar; format: cell-based; conditions: for antibacterial properties of polymer film (in words): incorporated into the nitrile rubber latex dip bath; for sides of the film exhibiting antibacterial activity (in words): PHMB in coagulation layer, triclosan in nitrile rubber
Procedure: Tests were carried out in order to assess which combination of biocidal agents were compatible with the glove manufacturing process and gave the best antimicrobial performance. Small rectangles of nitrile rubber latex were prepared by dipping clean microscope slides into warm coagulant solution, withdrawing them and drying them in an oven at 110° C. The slides were allowed to cool before dipping into the nitrile rubber latex dispersion. They were withdrawn, allowed to drain, and placed in an oven at 110° C. After cooling the layer of cured nitrile rubber was carefully removed from the microscope slide and sent for testing to determine their antimicrobial properties. Active ingredients were incorporated into the coagulant and nitrile polymer latex dispersion as appropriate.
The qualitative measure of their antibacterial performance was carried out by zones of inhibition analysis. The procedure used was for each sample to be assayed against Staphylococcus aureus, a bacterium commonly found on the skin of humans, by comparing their zones of inhibition on an agar preparation.
Seeded agar plates were prepared by adding 0.1 ml of an overnight broth culture into a clean, sterile petri dish, adding approximately 20 ml of an agar preparation that had been sterilised and cooled to 45° C. before use. The selective agar used was Tryptone Soy Agar. The challenge organism was mixed into the agar by gentle swirling to provide a homogeneous suspension. The plates were allowed to set for approximately one hour in a cool dry place.
Swatches of the polymer glove material were cut to approximately 2 cm square and placed on the seeded agar. The petri dishes were then placed in an incubator overnight at 37° C. Migration of the chemicals toxic to the challenge organisms creates a zone around the edge of the swatch where growth of the challenge organism is inhibited. The relative distance of the zone inhibition from the edge of the swatch for each organism gives an indication of the antibacterial efficacy of the products.

[1] = cited from earlier work
[2] = Experiment 3, 1.0% added to coagulant solution
[3] = Experiment 3, added to the calcium containing coagulant solution, agent on one side of the film
[4] = Experiment 4, incorporated into the coagulation layer / coagulant solution
[5] = Experiment 2, 0.1% added to nitrile rubber
[6] = Experiment 2, 0.1% in nitrile rubber, compared with control sample 12B/088
[7] = Experiment 3, 0.1% added to coagulant solution

Compound	ZONE OF INHIBITION (Staphylococcus aureus; [2]) [mm]	antibacterial performance (in words) (Staphylococcus aureus; [3])	antibacterial performance (in words) (Staphylococcus aureus; [4])	antibacterial properties of polymer film (in words) (Staphylococcus aureus; Experiment 1)	ZONE OF INHIBITION (Staphylococcus aureus; [5]) [mm]	antibacterial effectiveness (in words) (Staphylococcus aureus; [6])	sides of the film exhibiting antibacterial activity (in words) (Staphylococcus aureus; Experiment 4)	ZONE OF INHIBITION (Staphylococcus aureus; [7]) [mm]	other results
Cn1sc(Cl)cc1=O [Methylchloroisothiazolinone]									antibacterial effectiveness (in words) (Staphylococcus aureus; Experiment 3, 0.5%): effective antibacterial agent; ZONE OF INHIBITION (Staphylococcus aureus; Experiment 3, 0.5% added to nitrile rubber): 15 mm
Benzalkonium chloride [BTC 50E]	30	effective antibacterial performance	good results						ZONE OF INHIBITION (Staphylococcus aureus; Experiment 3, 0.22% added to coagulant solution): 14 mm; ZONE OF INHIBITION (Staphylococcus aureus; Experiment 4, 0.25% added to coagulant solution): 8 mm
O=c1[nH]sc2ccccc12 [Proxel (BIT), 1,2-Benzisothiazol-3((2H)-one]				exhibited antibacterial properties	15	significantly more effective			ZONE OF INHIBITION (Staphylococcus aureus; Experiment 1, 0.15% added to nitrile rubber): 9 mm
Poly(hexamethylene biguanide) [PHMB]			good results				only one side of the polymer film exhibits antibacterial performance		ZONE OF INHIBITION (Staphylococcus aureus; Experiment 4, 0.3% added to coagulant solution, face down as normal): 16 mm; ZONE OF INHIBITION (Staphylococcus aureus; Experiment 4, 0.3% added to coagulant solution, film placed face up on the agar plate, biocide not on the side on the agar gel): 5 mm
Oc1cc(Cl)ccc1Oc1ccc(Cl)cc1Cl [Triclosan]		exhibited antibacterial performance but was not as effective as when it was incorporated into the nitrile rubber layer		exhibited antibacterial properties	20	significantly more effective	both sides of the film exhibit antibacterial activity	10	solubility in water [1]: 0.0012 g per liter; ZONE OF INHIBITION (Staphylococcus aureus; Experiment 1, 0.05% added to nitrile rubber): 15 mm; ZONE OF INHIBITION (Staphylococcus aureus; Experiment 2, 0.25% added to nitrile rubber): 18 mm; ZONE OF INHIBITION (Staphylococcus aureus; Experiment 3, 0.05% added to nitrile rubber): 12 mm; antibacterial effectiveness (in words) (Staphylococcus aureus; Experiment 3, 0.05% in the nitrile rubber film (run 12C/064)): effective; ZONE OF INHIBITION (Staphylococcus aureus; Experiment 3, 0.1% added to nitrile rubber): 17 mm; ZONE OF INHIBITION (Staphylococcus aureus; Experiment 3, 0.5% added to coagulant solution): 12 mm; ZONE OF INHIBITION (Staphylococcus aureus; Experiment 4, 0.1% added to nitrile rubber): 16 mm; antibacterial performance (in words) (Staphylococcus aureus; Experiment 4, incorporated into the nitrile rubber): good antibacterial performance
[H]/N=C(\N/C(=N/[H])NCCCCCCNC(=N)NC(=N)Nc1ccc(Cl)cc1)Nc1ccc(Cl)cc1 [Chlorhexidine]	18	effective antibacterial performance						11	

— patent publication US9352074B2, “Antimicrobial examination gloves” (priority 2013, dated 2016)
